One experiment addresses T1, CDK12/CyclinK (Homo sapiens, UniProt Q9NYV4).
T1 construct: His-CDK12 (aa Q696-S1082); made in house; host or cells: Hi-5 insect cells (baculovirus co-infection with CycK and yeast CAK1)
The experiment in a line: CDK12/CycK high ATP kinase assay (TR-FRET). The experiment is classed as biochemical. The settings on record: 2 mM ATP (high ATP); median; read-out: CDK12/CyclinK, 2 mM ATP (high ATP), IC50 - [mol/l] (median). The text has this: 2.2 CDK12/CycK high ATP Kinase Assay
In the context of the present invention, the term “IC50 CDK12 hATP” refers to the ICso values obtained according to the assay described in this section (2.2) herein below, i.e. the IC50 values for the inhibition of CDK12 at high ATP.
CDK12/CycK -inhibitory activity of compounds of the present invention at 2 millimol/L adenosine-tri-phosphate (ATP) was quantified employing the TR-FRET (TR-FRET=Time Resolved Fluorescence Energy Transfer) based CDK12/CycK activity inhibition assay as described in the following paragraphs.
A complex of human recombinant CDK12 and human recombinant CycK (both N-terminally His-tagged, expression and purification as described above) was used as enzyme. As substrate for the kinase reaction biotinylated peptide biotin-Ahx-KFELLPTPPLSPSRRSGL (C-terminus in amid form) was used which can be purchased e.g. form the company Biosyntan (Berlin-Buch, Germany).
For the assay 50 nanoL of a 100 fold concentrated solution of the test compound in DMSO was pipetted into either a black low volume 384 well microtiter plate or a black 1536 well microtiter plate (both Greiner Bio-One, Frickenhausen, Germany), 2 microL of a solution of CDK12/CycK in aqueous assay buffer [25 millimol/L HEPES pH 7.5, 20 millimol/L MgCl2, 5 millimol/L β-glycerophosphate, 2 millimol/L EGTA, 1.0 millimol/L dithiothreitol, 0.01% (v/v) Nonidet-P40 (Sigma), 0.01% (w/v) bovine serum albumin] were added and the mixture was incubated for 15 min at 22° C. to allow pre-binding of the test compounds to the enzyme before the start of the kinase reaction. Then the kinase reaction was started by the addition of 3 microL of a solution ATP (3.33 millimol/L=>final conc. in the 5 microL assay volume is 2 millimol/L) and substrate (1.67 micromol/L=>final conc. in the 5 microL assay volume is 1 micromol/L) in assay buffer and the resulting mixture was incubated for a reaction time of 60 min at 22° C. The concentration of CDK12/CycK was adjusted depending of the activity of the enzyme lot and was chosen appropriate to have the assay in the linear range, typical concentrations were about 0.75 nanomol/L. The reaction was stopped by the addition of 3 microL of a solution of TR-FRET detection reagents (125 nanomol/L streptavidine-XL665 [Cisbio Bioassays, Codolet, France] and 0.67 nanomol/L anti-Phospho-c-Myc (Ser 62) (E1J4K)-antibody from Cell Signalling [#13748] and 2 nanomol/L LANCE EU-W1024 labeled anti-rabbit IgG antibody [Perkin-Elmer, product no. 0083]) in an aqueous EDTA-solution (133 millimol/L EDTA, 0.27% (w/v) bovine serum albumin in 66.7 millimol/L HEPES pH 7.5).
The resulting mixture was incubated 1 h at 22° C. to allow the formation of complex between the phosphorylated biotinylated peptide and the detection reagents. Subsequently the amount of phosphorylated substrate was evaluated by measurement of the resonance energy transfer from the Eu-chelate to the streptavidine-XL. Therefore, the fluorescence emissions at 620 nm and 665 nm after excitation at 350 nm was measured in a TR-FRET reader, e.g. a Pherastar FS (BMG Labtechnologies, Offenburg, Germany) or a Viewlux (Perkin-Elmer). The ratio of the emissions at 665 nm and at […] was taken as the measure for the amount of phosphorylated substrate. The data were normalised (enzyme reaction without inhibitor=0% inhibition, all other assay components but no enzyme=100% inhibition).
On the technique in general: Time-resolved FRET reads energy transfer from a long-lived donor to a nearby acceptor.

The next experiment addresses T2, CDK12 (Homo sapiens, UniProt Q9NYV4).
T2 construct: endogenous in cells; host or cells: CAL-120 human breast cancer cells (DSMZ ACC 459)
The experiment in a line: CDK12 nuclear protein level: immunofluorescence/high content analysis in CAL-120 cells. The class given is cell-based. As to conditions: for DC50: CAL-120 cells, 24 h, nuclear CDK12 staining intensity, median, read-out: CDK12 degradation IF DC50 - [mol/l] (median); for (IC50 CDK12 high ATP) to (Degradation DC50 CDK12) ratio: ratio of IC50 CDK12 hATP (2 mM ATP) to DC50 CDK12 (IF, CAL-120). Here is the method: 6. CDK12 Nuclear Protein Level: Immunofluorescence/High Content Analysis
In the context of the present invention, the term “DC50 CDK12” refers to the DC50 values obtained according to the assay described in this section (6) herein below, i.e. the DC50 values for the degradation of CDK12.:
CAL-120 human breast cancer cells (DSMZ ACC 459) are seeded in 1536-well microtiter plates (800 cells per well) containing 50 nanoL of compounds in Dose-Response. Control wells received DMSO or Reference Example 1. Plates are then incubated for 24 h at 37° C. in an humidified incubator and fixed with 4% PFA for 10 min. Then immunofluorescence (IF) against CDK12 (CellSignalling CDK12 Antibody #11973, rabbit, 1:100 dilution) is performed using standard IF protocols. Cells are then stained with Hoechst 33342 (Life Technologies, H-1399, 0.1 microg/mL) and imaged on an automated confocal microscopy system (e.g. Perkin Elmer Opera Phenix). Nuclear and cytoplasmic intensity as well as the nuclear/cytoplasmic intensity ratio is determined by automated image analysis using custom generated scripts (MetaXpress). Data is then transferred to Genedata Screener software, normalized to DMSO and control and DC50 values (degrading concentration to achieve 50% reduction of nuclear CDK12 staining intensity relative to controls) are reported.

Consider 16 molecules from patent publication US20230192700A1, “PYRAZOLOPYRAZINES ACTING ON CANCERS VIA INHIBITION OF CDK12” (Bayer Aktiengesellschaft, priority 2020, published 2023).

pIC50: −log10 of the molar value.

T2 sequence (Q9NYV4 whole entry): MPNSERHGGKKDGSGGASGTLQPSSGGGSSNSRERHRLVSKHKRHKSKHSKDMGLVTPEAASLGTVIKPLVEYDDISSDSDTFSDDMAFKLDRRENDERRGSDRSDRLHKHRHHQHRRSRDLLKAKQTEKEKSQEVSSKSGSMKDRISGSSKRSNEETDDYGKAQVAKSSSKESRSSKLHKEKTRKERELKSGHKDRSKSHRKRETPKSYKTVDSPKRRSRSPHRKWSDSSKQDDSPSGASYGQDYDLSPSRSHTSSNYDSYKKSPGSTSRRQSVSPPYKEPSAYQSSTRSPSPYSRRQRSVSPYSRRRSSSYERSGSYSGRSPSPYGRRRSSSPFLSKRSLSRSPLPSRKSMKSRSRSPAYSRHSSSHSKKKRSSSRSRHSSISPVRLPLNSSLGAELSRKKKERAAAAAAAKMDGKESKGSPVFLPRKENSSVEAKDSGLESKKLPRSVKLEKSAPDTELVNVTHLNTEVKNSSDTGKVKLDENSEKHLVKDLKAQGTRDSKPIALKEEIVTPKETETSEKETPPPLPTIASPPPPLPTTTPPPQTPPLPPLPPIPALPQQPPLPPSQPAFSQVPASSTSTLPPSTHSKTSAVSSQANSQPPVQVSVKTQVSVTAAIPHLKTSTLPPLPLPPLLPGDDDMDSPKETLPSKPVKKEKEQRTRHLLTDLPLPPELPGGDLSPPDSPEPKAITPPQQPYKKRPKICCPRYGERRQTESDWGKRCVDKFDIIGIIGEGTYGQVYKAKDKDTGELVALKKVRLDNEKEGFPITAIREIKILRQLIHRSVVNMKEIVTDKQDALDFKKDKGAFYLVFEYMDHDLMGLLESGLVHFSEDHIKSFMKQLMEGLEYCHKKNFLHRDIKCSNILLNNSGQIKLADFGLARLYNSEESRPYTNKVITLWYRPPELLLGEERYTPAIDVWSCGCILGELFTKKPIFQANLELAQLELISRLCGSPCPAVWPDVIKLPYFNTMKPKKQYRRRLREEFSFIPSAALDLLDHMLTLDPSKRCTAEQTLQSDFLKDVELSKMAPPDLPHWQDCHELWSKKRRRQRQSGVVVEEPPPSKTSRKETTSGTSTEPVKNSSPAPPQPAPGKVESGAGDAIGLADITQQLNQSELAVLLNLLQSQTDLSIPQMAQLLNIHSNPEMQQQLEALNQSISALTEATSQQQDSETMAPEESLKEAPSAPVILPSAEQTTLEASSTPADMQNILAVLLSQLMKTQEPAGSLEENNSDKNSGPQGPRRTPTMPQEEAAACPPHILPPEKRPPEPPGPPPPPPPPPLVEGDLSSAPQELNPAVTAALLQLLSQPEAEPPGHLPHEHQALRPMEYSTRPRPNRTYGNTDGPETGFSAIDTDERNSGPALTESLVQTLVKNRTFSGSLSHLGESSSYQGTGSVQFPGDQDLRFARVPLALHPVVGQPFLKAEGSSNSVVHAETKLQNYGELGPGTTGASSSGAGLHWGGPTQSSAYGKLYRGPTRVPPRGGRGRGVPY
T2 sequence (O75909 whole entry partner): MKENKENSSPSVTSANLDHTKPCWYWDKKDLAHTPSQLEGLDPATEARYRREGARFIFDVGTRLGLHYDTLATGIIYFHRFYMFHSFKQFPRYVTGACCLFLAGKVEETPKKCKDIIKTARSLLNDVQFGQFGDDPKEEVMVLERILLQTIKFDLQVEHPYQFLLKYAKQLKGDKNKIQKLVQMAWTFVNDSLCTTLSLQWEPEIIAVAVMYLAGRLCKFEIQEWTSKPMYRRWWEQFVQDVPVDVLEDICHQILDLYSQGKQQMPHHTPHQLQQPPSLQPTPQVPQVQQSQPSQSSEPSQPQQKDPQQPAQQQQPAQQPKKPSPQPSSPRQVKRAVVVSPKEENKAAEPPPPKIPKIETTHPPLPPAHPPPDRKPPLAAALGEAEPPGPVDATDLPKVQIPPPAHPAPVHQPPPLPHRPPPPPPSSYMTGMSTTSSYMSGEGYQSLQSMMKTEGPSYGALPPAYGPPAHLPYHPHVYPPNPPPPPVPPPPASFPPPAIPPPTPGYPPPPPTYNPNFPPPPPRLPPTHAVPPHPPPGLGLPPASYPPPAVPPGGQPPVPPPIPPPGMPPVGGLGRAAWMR
T1 sequence (Q9NYV4 with tags, fused parts or gaps): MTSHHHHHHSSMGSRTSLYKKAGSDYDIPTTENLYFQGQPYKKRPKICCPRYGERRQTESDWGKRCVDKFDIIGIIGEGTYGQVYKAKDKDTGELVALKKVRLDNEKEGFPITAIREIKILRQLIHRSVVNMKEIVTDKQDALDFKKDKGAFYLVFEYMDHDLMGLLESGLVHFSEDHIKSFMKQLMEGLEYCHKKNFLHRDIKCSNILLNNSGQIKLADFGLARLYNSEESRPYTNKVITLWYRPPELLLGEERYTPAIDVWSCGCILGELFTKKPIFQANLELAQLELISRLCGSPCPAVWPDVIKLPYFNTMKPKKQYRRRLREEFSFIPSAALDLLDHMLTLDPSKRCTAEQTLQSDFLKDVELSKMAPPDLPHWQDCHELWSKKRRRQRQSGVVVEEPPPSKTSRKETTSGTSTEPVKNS
T1 sequence (O75909 with tags, fused parts or gaps partner limits assumed): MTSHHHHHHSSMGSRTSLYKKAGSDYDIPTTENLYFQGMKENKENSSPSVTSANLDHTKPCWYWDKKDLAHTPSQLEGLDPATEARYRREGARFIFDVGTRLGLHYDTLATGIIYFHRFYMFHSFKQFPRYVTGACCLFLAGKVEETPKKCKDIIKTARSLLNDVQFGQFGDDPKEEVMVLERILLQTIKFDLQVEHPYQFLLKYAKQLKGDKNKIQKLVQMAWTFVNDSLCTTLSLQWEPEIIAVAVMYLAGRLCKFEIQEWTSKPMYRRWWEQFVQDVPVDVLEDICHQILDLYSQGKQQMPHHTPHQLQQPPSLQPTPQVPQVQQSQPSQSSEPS

On to `CC(C)(O)C1CC(n2nc(NCc3nc4ccccc4[nH]3)c3ncc(C4CC4)nc32)C1` (mixture of isomers) [Example 48, 2-[cis/trans-3-(3-{[(1H-benzimidazol-2-yl)methyl]amino}-6-cyclopropyl-1H-pyrazolo[3,4-b]pyrazin-1-yl)cyclobutyl]propan-2-ol], for which the pIC50 on CDK12/CyclinK is 4.86. Moreover, on CDK12, the DC50 was determined as 7.12 nM.
Turning to `c1ccc2[nH]c(CNc3nn(C4CCOC4)c4nc(C5CC5)cnc34)nc2c1` (racemic) [Example 10, (±)-N-[(1H-benzimidazol-2-yl)methyl]-6-cyclopropyl-1-[oxolan-3-yl]-1H-pyrazolo[3,4-b]pyrazin-3-amine], the pIC50 at CDK12/CyclinK is under 4.70. Moreover, at CDK12, the DC50 amounted to 40.8 nM and the “(IC50 CDK12 high ATP) to (Degradation DC50 CDK12) ratio” value is reported as over 4901.
`CN1CCCC(n2nc(NCc3nc4ccccc4[nH]3)c3ncc(C4CC4)nc32)CC1` (racemic) [Example 34, (±)-N-[(1H-benzimidazol-2-yl)methyl]-6-cyclopropyl-1-(1-methylazepan-4-yl)-1H-pyrazolo[3,4-b]pyrazin-3-amine]: the pIC50 at CDK12/CyclinK is under 4.70. In addition, on CDK12, the DC50 worked out at 14.2 nM.
Consider `CN1CCC(n2nc(NCc3nc4ccccc4[nH]3)c3ncc(C4CC4)nc32)C1` (racemic) [Example 35, (±)-N-[(1H-benzimidazol-2-yl)methyl]-6-cyclopropyl-1-(1-methylpyrrolidin-3-yl)-1H-pyrazolo[3,4-b]pyrazin-3-amine], for which, at CDK12/CyclinK, the pIC50 is under 4.70. At CDK12, the DC50 was found to be 19.1 nM and the “(IC50 CDK12 high ATP) to (Degradation DC50 CDK12) ratio” value is given as over 1046.
On to `CC1CC(n2nc(NCc3nc4ccccc4[nH]3)c3ncc(C4CC4)nc32)CCN1C` (racemic) [Example 41, (±)-cis/trans-N-[(1H-benzimidazol-2-yl)methyl]-6-cyclopropyl-1-(1,2-dimethylpiperidin-4-yl)-1H-pyrazolo[3,4-b]pyrazin-3-amine], for which, on CDK12/CyclinK, the pIC50 is under 4.70. For the same molecule, on CDK12, the DC50 came to 4.05 nM.
For the molecule `CC1COCCC1n1nc(NCc2nc3ccccc3[nH]2)c2ncc(C3CC3)nc21` (racemic) [Example 42, (±)-cis/trans-N-[(1H-benzimidazol-2-yl)methyl]-6-cyclopropyl-1-(3-methyloxan-4-yl)-1H-pyrazolo[3,4-b]pyrazin-3-amine], the pIC50 at CDK12/CyclinK was under 4.70. Further, on CDK12, the DC50 came to 11.1 nM and the “(IC50 CDK12 high ATP) to (Degradation DC50 CDK12) ratio” value is on record as over 2322.
`CC1CC(n2nc(NCc3nc4ccccc4[nH]3)c3ncc(C4CC4)nc32)CCO1` (racemic) [Example 44, (±)-cis/trans-N-[(1H-benzimidazol-2-yl)methyl]-6-cyclopropyl-1-(2-methyloxan-4-yl)-1H-pyrazolo[3,4-b]pyrazin-3-amine]: the DC50 at CDK12 came to 34.9 nM.
In the case of `COCCC(C)n1nc(NCc2nc3ccccc3[nH]2)c2ncc(C3CC3)nc21` (racemic) [Example 57, (±)-N-[(1H-benzimidazol-2-yl)methyl]-6-cyclopropyl-1-(4-methoxybutan-2-yl)-1H-pyrazolo[3,4-b]pyrazin-3-amine], the pIC50 at CDK12/CyclinK is under 4.70. On CDK12, the DC50 stood at 170 nM and the “(IC50 CDK12 high ATP) to (Degradation DC50 CDK12) ratio” value is given as over 118.
Take `CC(CCN(C)C)n1nc(NCc2nc3ccccc3[nH]2)c2ncc(C3CC3)nc21` (racemic) [Example 62, (±)-N-[(1H-benzimidazol-2-yl)methyl]-6-cyclopropyl-1-[4-(dimethylamino)butan-2-yl]-1H-pyrazolo[3,4-b]pyrazin-3-amine]: the pIC50 on CDK12/CyclinK was under 4.70. Further, the DC50 at CDK12 worked out at 676 nM.
As for `c1ccc2[nH]c(CNc3nn(C4CCOC4)c4nc(C5CC5)cnc34)nc2c1` (single isomer, unassigned) [Example 17, (+) or (−)-N-[(1H-benzimidazol-2-yl)methyl]-6-cyclopropyl-1-(oxolan-3-yl)-1H-pyrazolo[3,4-b]pyrazin-3-amine], the pIC50 at CDK12/CyclinK is under 4.70. Also, on CDK12, the DC50 is 24.8 nM and the “(IC50 CDK12 high ATP) to (Degradation DC50 CDK12) ratio” value is listed as over 807.
The like results for `c1ccc2[nH]c(CNc3nn(C4CCOC4)c4nc(C5CC5)cnc34)nc2c1` (single isomer, unassigned) [Example 18, (-) or (+) -N-[(1H-benzimidazol-2-yl)methyl]-6-cyclopropyl-1-[oxolan-3-yl]-1H-pyrazolo[3,4-b]pyrazin-3-amine] were, in that order, under 4.70, 17.5 nM and over 1142.
On the same counts, the results for `CN1CCCC(n2nc(NCc3nc4ccccc4[nH]3)c3ncc(C4CC4)nc32)CC1` (single isomer, unassigned) [Example 37, (+) or (−)-N-[(1H-benzimidazol-2-yl)methyl]-6-cyclopropyl-1-[(4R*)-1-methylazepan-4-yl]-1H-pyrazolo[3,4-b]pyrazin-3-amine] are under 4.70, 12.6 nM and over 1589.
Take `CN1CCCC(n2nc(NCc3nc4ccccc4[nH]3)c3ncc(C4CC4)nc32)CC1` (single isomer, unassigned) [Example 38, (−) or (+)-N-[(1H-benzimidazol-2-yl)methyl]-6-cyclopropyl-1-[(4R*)-1-methylazepan-4-yl]-1H-pyrazolo[3,4-b]pyrazin-3-amine]: the pIC50 at CDK12/CyclinK is under 4.70. Besides, on CDK12, the DC50 worked out at 13.2 nM and the “(IC50 CDK12 high ATP) to (Degradation DC50 CDK12) ratio” value is recorded as over 1516.
For `CC(CCN(C)C)n1nc(NCc2nc3ccccc3[nH]2)c2ncc(C3CC3)nc21` (single isomer, unassigned) [Example 63, (+) or (−)-N-[(1H-benzimidazol-2-yl)methyl]-6-cyclopropyl-1-[4-(dimethylamino)butan-2-yl]-1H-pyrazolo[3,4-b]pyrazin-3-amine], the pIC50 on CDK12/CyclinK was under 4.70. Besides, on CDK12, the DC50 is 912 nM and the “(IC50 CDK12 high ATP) to (Degradation DC50 CDK12) ratio” value was over 22.
Take `O[C@H]1C[C@H](n2nc(NCc3nc4ccccc4[nH]3)c3ncc(C4CC4)nc32)C1` [Example 43, trans-3-(3-{[(1H-benzimidazol-2-yl)methyl]amino}-6-cyclopropyl-1H-pyrazolo[3,4-b]pyrazin-1-yl)cyclobutan-1-ol]: at CDK12, the DC50 turned out to be 9.53 nM.
The same measure, in the same setting: then `c1ccc2[nH]c(CNc3nn(C4C[C@H]5CC[C@@H](C4)O5)c4nc(C5CC5)cnc34)nc2c1` (stereo partly drawn) [Example 45, exo/endo-N-[(1H-benzimidazol-2-yl)methyl]-6-cyclopropyl-1-(8-oxabicyclo[3.2.1]octan-3-yl)-1H-pyrazolo[3,4-b]pyrazin-3-amine], with 8.11 nM.
